Reference: patent publication US20130252890A1, “6,7-DIHYDRO-5H-BENZO[7]ANNULENE DERIVATIVES, PROCESS FOR PREPARATION THEREOF, PHARMACEUTICAL PREPARATIONS COMPRISING THEM, AND THE USE THEREOF FOR PRODUCTION OF MEDICAMENTS” (BAYER INTELLECTUAL PROPERTY GMBH, priority 2010, published 2013)
“Also recorded” adds a separate entry of the source.

Tests used:
[1] = system: bone mass and uterus weight; test: Antagonistic action on bone mass and uterus weight in hormonally intact rats; assay type: in vivo, Sprague-Dawley rats; settings: adult hormonally intact rats, oral 1-10 mg/kg, 2 months
Procedure: Application was oral, in peanut oil/ethanol. The animals were killed on the day after the last application and the tibia and uteri were removed. The uteri were weighed, fixed and prepared for optional histological investigations. Bone density was determined on long bones by pQCT (quantitative computed tomography), once before the treatment, once on the day of autopsy. The variations for this parameter were shown correspondingly between these two reference points (values below 100 correspond to a decrease in bone mass density, values above 100 to an increase). The control group was a group of animals from which the ovaries had been removed (OVX) (due to ovariectomy, as expected there is a decrease in density of the trabecular bone in the measured range over the period of the experiment). All other animals underwent a SHAM-OP (a sham operation) (without the ovaries being removed) in addition to the application treatment. The changes in relative uterus weights served as the reference for the anti-oestrogenic action.

mammary gland = test: Action on the mammary gland in the juvenile rat; assay type: in vivo; settings: juvenile ovariectomized rats, 6 days
Procedure: The formation of secretory units in the mamma is dependent in particular on gestagens and oestrogens. […] To investigate the stimulating action of test compounds, animals are ovariectomized at the age of 21 days and after a treatment-free interval of 6 days treated either with a combination of the test compound and an oestrogen (for example 70 μg/kg E1) or a combination of the test compound and a gestagen (for example promegestone 0.3 mg/kg) in each case for a period of 6 days. To investigate the antagonistic potential of a test compound, the test compound is given for a period of 6 days together with an oestrogen (see above) and a gestagen (see above). Finally one of the abdominal-inguinal mammary glands is prepared and submitted to so-called whole-mount staining. The number of secretory units on an area of approx. 1.0 mm^2 serves as the end point (moreover, this can also vary according to requirements).

uterus [2] = test: Oestrogenic action - uterus growth test in the infantile rat; assay type: in vivo; settings: sc, 72 h, s.c. 3 days, maximum at dose 0.1 mg/kg, relative to E2 0.3 μg/animal, read-out: maximum uterotropic action (% estradiol action) in the dose range from 0.03 to 3 mg/kg
Procedure: Both the uterus and the vagina show a weight increase that is dependent on oestrogenic efficacy, in infantile animals when they are treated with a substance with oestrogenic action. In the uterus, under oestrogenic action there is also proliferation and increase in height of the luminal epithelium.
Immature, intact rats (n=5-6 animals/group; body weight 40-50 g) receive the substance s.c. for 3 days (d1-d3). On day 4 (d4) the animals are killed with CO2. The uteri are removed and weighed. For histological assessment, a piece of uterus, preferably a uterine horn, is fixed in formaldehyde and embedded in paraffin. The stimulation of the organ weights (relative to mg/100 g body weight) and the height of the epithelium are shown as percentage stimulation in comparison with the reference compound 17β-estradiol (E2). (Substitution dose of E2 0.3 μg/animal).

[3] = system: peripheral cholesterol level; test: Hepatic oestrogenicity in the ovariectomized adult rat (plasma cholesterol); assay type: in vivo; settings: ovariectomized adult rats, s.c. daily for 6 days; cholesterol day 0 vs day 8
Description: Substances with oestrogenic action influence the synthesis of various plasma proteins, of coagulation factors and fibrinolytic factors in the liver. […] In the present investigations, lowering of the peripheral cholesterol level is used as a surrogate parameter for analysis of the hepatic oestrogenicity of the claimed pharmacological compounds. Adult ovariectomized rats were, after a pause of 6-10 days, treated daily for 6 days with the substances by subcutaneous application. The plasma cholesterol levels were determined and compared before and after the respective treatment.

[4] = system: ovarian estradiol synthesis; test: Stimulation of ovarian oestrogen synthesis (HPG axis) in intact adult rats; assay type: in vivo, rat; settings: hormonally intact adult rats, daily for 10 days; quotient of peripheral estradiol values after and before treatment
Description: The clinical use both of pure anti-oestrogens and of various SERMs for the treatment of premenopausal women is limited by their property of stimulating the ovaries through activation of the hypothalamic-pituitary-gonadal axis (HPG axis), which leads to the increase in peripheral estradiol levels (Palomba, S., Orio, F., Jr., Morelli, M., Russo, T., Pellicano, M., Zupi, E., Lombardi, G., Nappi, C., Panici, P. L., and Zullo, F. (2002). Raloxifene administration in premenopausal women with uterine leiomyomas: a pilot study. J Clin Endocrinol Metab 87, 3603-3608). This stimulation of the HPG axis is associated with penetration of the blood-brain barrier and penetration of the brain. To investigate the ovary-stimulating properties of the claimed pharmacological compounds, hormonally intact adult rats were treated with the substances daily for a period of 10 days. The study end point is the quotient of peripheral estradiol values after and before treatment.

endometriosis lesions = test: Endometriosis model in the rat (autologous transplantation); assay type: in vivo
Description: Using intact adult female rats, experimental endometriosis was induced in the autologous transplantation model based on Vernon M. W. and Wilson E. A., 1985 (Fertil Steril. 44(5):684-694). A uterine horn was removed from animals that were exclusively in oestrus, the myometrium was separated from the endometrium and biopsies with dimensions of 4×4 mm were obtained from the endometrial tissue. Two uterine fragments were transplanted onto the inside of the abdominal wall (peritoneum) and two uterine fragments were transplanted onto the mesenterium of the same animal (4 fragments per animal). After 21 days the animals with endometriosis were laparotomized, and the size of the transplants was determined. The animals were treated after laparotomy and then daily in the morning with the stated dosages of the selected claimed substances by subcutaneous administration. Finally, 28 days after the start of treatment (49 days after transplantation), all the animals were laparotomized again and the size of the lesion was measured and was correlated with the size before the start of treatment.

uterus [5] = test: Anti-uterus growth test in the adult rat; settings: sc, 72 h; ovariectomized adult rat, s.c. 3 days with 1.5 μg/kg/day 17β-estradiol; inhibition of uterus growth; value of 44 is a mean of two measurements; read-out: anti-oestrogenic activity in vivo in % at a dose of 0.3 mg/kg (rat)
Description: The uterus of oestrogen-substituted rats can be used as a test model for detecting a direct action of substances with anti-oestrogenic properties. The parameter of oestrogenic action is estradiol-induced uterus growth in rats, which is inhibited by simultaneous administration of a substance with anti-oestrogenic action. The experimental animals (n=5-6 animals/group) were ovariectomized before the start of the test, to rule out the influence of endogenous oestrogens. After a phase of 6 to 10 days, the test substances are administered s.c. on 3 consecutive days (d1-d3) in combination with a substitution dose of 1.5 μg/kg/day 17β-estradiol. 17β-estradiol alone serves as positive control, and the excipients serve as negative control. On day 4 (d4) the animals are killed, and the uteri and vaginae are removed and weighed. The organ weights are converted to mg/100 g body weight, then the mean value and the standard deviation are calculated for each dosage. The inhibition of uterus growth induced by 17β-estradiol is shown as percentage inhibition.

CN(CCCCCCC1=C(c2cc(F)cc(F)c2)CCCc2cc(O)ccc21)CCCCS(=O)(=O)CCCC(F)(F)F [Example 44, 8-(3,5-Difluorophenyl)-9-[6-(methyl{4-[(4,4,4-trifluorobutyl)sulphonyl]butyl}amino)hexyl]-6,7-dihydro-5H-benzo[7]annulen-3-ol]
effect on relative uterus weight (anti-oestrogenic action) [1]: dose-dependent anti-oestrogenic action on the uterus; also recorded: dose-dependent decrease | trabecular bone mass density of the tibia [1]: not reduced; also recorded: does not show a significant decrease in bone mass density at any of the tested dosages | induction of mammary gland differentiation (agonistic potential) (mammary gland; test compound alone with gestagen R5020 or alone with oestrogen E1): no induction of mammary gland differentiation significantly different from the group given excipients; also recorded: did not show any agonistic, inducing potential | formation of mammary secretory units induced by E1 and R5020 (mammary gland; test compound with oestrogen E1 and gestagen promegestone (R5020)): dose-dependent inhibition; also recorded: dose-dependent reduction of this effect | Emax at 0.1 mg/kg (uterus [2]): 6% | hepatic oestrogenicity: lowering of the peripheral cholesterol level [3]: only observed at high dosage | Stimulation of ovarian oestrogen synthesis: factor at a dose of 3 mg/kg rat [4]: 1.2 | peripheral (blood) estradiol level of the treated animals (endometriosis lesions; animals of the FIG. 2C experiment (FIG. 2D)): does not lead to an increase in peripheral estradiol level above the physiological range; also recorded: None of the groups treated with example compound 44 in the stated dosages shows levels above or below the naturally occurring estradiol levels | reduction of lesion sizes, independent experiment (endometriosis lesions; rat, 0.3 mg/kg to 13 mg/kg, three dosages (FIG. 2C)): significant dose-dependent reduction of lesion sizes; also recorded: all three dosages lead to a significant reduction of the lesion | dosage with significant reduction in sizes of lesions (endometriosis lesions; rat, 28 days of treatment, 115 tested 0.1-1 mg/kg, 44 tested 0.3-10 mg/kg): ≥ 1 mg/kg | reduction of lesion size (endometriosis lesions; rat, s.c. daily, 4 weeks (FIG. 2A, FIG. 2B)): significant dose-dependent reduction of lesion size | inhibition in vivo at 0.3 mg/kg (uterus [5]): 37%
